For two molecules, IC50 results are on record in article PMC11989005, “The Elongation Factor 1 Alpha Promoter Drives the Functional Expression of Kir2A in Plutella xylostella Cells” (International Journal of Molecular Sciences, 2025).

For the assay, the target named is T1, PxKir2A (Plutella xylostella, UniProt A0A7L7TNR0).
T1 construct: gene kir2; full-length ORF in pEF1alpha-PxKir2A, no tag stated; transiently expressed in P. xylostella Px4-2 cells, EGFP co-transfected from a separate plasmid
The assay is described as follows: whole-cell patch clamp, inhibition of inward K+ current. It counts as cell-based. On the technique in general: The patch-clamp technique gives a direct electrical read-out from membranes.

pIC50: −log10 of the molar value. Read-outs that look alike come from different tables or passages of the source.

T1 sequence (A0A7L7TNR0 entry or part of it): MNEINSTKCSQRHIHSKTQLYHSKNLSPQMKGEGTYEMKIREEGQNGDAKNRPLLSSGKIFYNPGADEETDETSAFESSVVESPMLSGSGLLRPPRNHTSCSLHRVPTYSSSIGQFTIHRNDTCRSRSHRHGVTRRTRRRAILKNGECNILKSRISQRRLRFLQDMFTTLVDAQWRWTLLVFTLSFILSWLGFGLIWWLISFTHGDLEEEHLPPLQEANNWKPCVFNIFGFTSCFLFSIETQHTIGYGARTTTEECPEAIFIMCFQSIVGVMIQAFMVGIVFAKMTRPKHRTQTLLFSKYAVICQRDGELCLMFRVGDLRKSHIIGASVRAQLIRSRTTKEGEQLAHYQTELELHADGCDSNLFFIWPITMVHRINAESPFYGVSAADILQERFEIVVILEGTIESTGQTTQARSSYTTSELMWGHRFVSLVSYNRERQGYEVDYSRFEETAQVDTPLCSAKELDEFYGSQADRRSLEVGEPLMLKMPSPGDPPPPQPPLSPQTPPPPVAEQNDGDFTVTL

The pIC50 is −log10 of the IC50, conventionally taken in molar units. In the case of `O=[N+]([O-])c1ccc(CN2CCOCCOCCN(Cc3ccc([N+](=O)[O-])cc3)CCOCC2)cc1` [VU590], the pIC50 is 6.20.

`CCC(=O)N1c2ccc(S(=O)(=O)Nc3cccc(OC)c3)cc2CC1C` (centres unmarked) [VU625]: the pIC50 (bath 50 mM KCl, pH 6.4, 25 °C, holding -20 mV, steps -120 to +20 mV, DMSO <0.05%, read-out: IC50) was 6.82.
